Measurements taken from patent US20180244548A1, “USE OF COPPER-CARBON COMPOSITE NANOMATERIAL IN ALGAE CONTROL” (Suzhou Guanjie Nano Anti-bacteria Coating Technology Co., …, priority 2015, published 2018).
“And” between values parts separate entries of the source, which are not always exact repeats. Identical values can stand only once.

Experiments:
[1] = test system: scenedesmus, chlorella and microcystis aeruginosa cells; assay: scanning electron microscope appearance observation of algae cells; type: cell-based; settings: nanomaterial 6.25-50 ppm; activated carbon 50 ppm; copper oxide 50 ppm; copper sulfate 6 ppm
[2] = test system: scenedesmus (green algae), chlorella (green algae) and microcystis aeruginosa (blue algae); assay: laboratory algae growth inhibition, α content of chlorophyll over time; type: cell-based; settings: copper sulfate 6 ppm

## O=S(=O)([O-])[O-].[Cu+2] [copper sulfate]
[1]
  appearance of algae cells in scanning electron micrographs: completely changed
[2]
  inhibition time of algae growth: 7 to 9 days and 7 days
